Patent US5084453A, “1-carboxy-1-vinyloxyimino aminothiazole cephalosporin derivatives” (priority 1988, dated 1992)
Converted amounts (≈) assume the structure as drawn. Like-named read-outs stand apart in the source and are kept apart here.

What was measured:
Assay in all cases: in vitro antibacterial activity, agar plate dilution method
Format in all cases: cell-based
[1] = test system: Ps. cepacia 23; settings: Burkholderia cepacia, 23; 10^6 CFU/ml; Mueller Hinton agar, 37° C., 16 hours; read-out: MIC
Experimental: (§1) Now, the in vitro antibacterial activities of the compounds of the present invention against various microorganisms, were measured by the following agar plate dilution method.
(§2) One platinum loopfull of each test microorganism incubated overnight in Mueller Hinton broth, was inoculated to Mueller Hinton agar (MH agaer). Such culture media containing various antibiotics in various concentrations were prepared. After incubation at 37° C. for 16 hours, the minimum inhibitory concentrations (MIC μg/ml) were measured.

[2] = test system: S. marcescens No. 16-2*; settings: Serratia marcescens
Experimental: as §1, §2

[3] = test system: E. coli NIHJ JC2; settings: Escherichia coli, NIHJJC2; 10^6 CFU/ml; Mueller Hinton agar, 37° C., 16 hours; read-out: MIC
Experimental: as §1, §2

[4] = test system: E. coli CSH2(RK1)*; settings: Escherichia coli, 16 h
Experimental: as §1, §2

[5] = test system: E. cloacae Nek 39*; settings: Enterobacter cloacae
Experimental: as §1, §2

[6] = test system: E. coli CSH(RE45)*; settings: Escherichia coli; 10^6 CFU/ml; β-Lactamase-producing strain; 37° C., 16 hours; read-out: MIC
Experimental: as §1, §2

[7] = test system: S. aureus 209P NIHJ-JC1; settings: Staphylococcus aureus; 10^6 CFU/ml; Mueller Hinton agar, 37° C., 16 hours; read-out: MIC
Experimental: as §1, §2

[8] = test system: E. cloacae 963; settings: Enterobacter cloacae, 963, 16 h
Experimental: as §1, §2

[9] = test system: P. vulgaris HX-19; settings: Proteus vulgaris
Experimental: as §1, §2

[10] = test system: K. oxytoca GN10650*; settings: Klebsiella oxytoca, GN10650, 16 h
Experimental: as §1, §2

[11] = test system: A. calcoaceticus No. 4; settings: Acinetobacter calcoaceticus, NO.4; 10^6 CFU/ml; Mueller Hinton agar, 37° C., 16 hours; read-out: MIC
Experimental: as §1, §2

[12] = test system: S. marcescens IAM 1184; settings: Serratia marcescens
Experimental: as §1, §2

[13] = test system: E. coli GN5482*; settings: Escherichia coli
Experimental: as §1, §2

[14] = test system: P. vulgaris No. 33*; settings: Proteus vulgaris
Experimental: as §1, §2

[15] = test system: K. pneumoniae No. 42*; settings: Klebsiella pneumoniae
Experimental: as §1, §2

[16] = test system: K. pneumoniae PC1-602; settings: Klebsiella pneumoniae
Experimental: as §1, §2

[17] = test system: Ps. aeruginosa AK 109; settings: Pseudomonas aeruginosa, AK109; 10^6 CFU/ml; Mueller Hinton agar, 37° C., 16 hours; read-out: MIC
Experimental: as §1, §2

[18] = test system: Ps. aeruginosa AKR17; settings: Pseudomonas aeruginosa, AKR17; 10^6 CFU/ml; Mueller Hinton agar, 37° C., 16 hours; read-out: MIC
Experimental: as §1, §2

[19] = test system: Ps. aeruginosa IFO3445; settings: Pseudomonas aeruginosa
Experimental: as §1, §2

[20] = test system: M. morganii GN5407*; settings: Morganella morganii, GN5407, 16 h
Experimental: as §1, §2

[21] = 10^6 CFU/ml, β-Lactamase-producing strain, 37° C., 16 hours, read-out: MIC
[22] = IAM1184, 10^6 CFU/ml, Mueller Hinton agar, 37° C., 16 hours, read-out: MIC
[23] = IFO3445, 10^6 CFU/ml, Mueller Hinton agar, 37° C., 16 hours, read-out: MIC

| SMILES | MIC [1] [µg/mL] | MIC [2, 21] [µg/mL] | MIC [3] [µg/mL] | MIC [4] [µg/mL] | MIC [6] [µg/mL] | MIC [7] [µg/mL] | MIC [8] [µg/mL] | MIC [10] [µg/mL] | MIC [11] [µg/mL] | MIC [12, 22] [µg/mL] | MIC ([13]; GN5482, 16 h) [µg/mL] | MIC ([15]; 16 h) [µg/mL] | MIC ([16]; PC1602, 16 h) [µg/mL] | MIC [17] [µg/mL] | MIC [18] [µg/mL] | MIC [19, 23] [µg/mL] | MIC [20] [µg/mL] | MIC ([5]; 16 h) [µg/mL] | MIC ([9]; HX19, 16 h) [µg/mL] | MIC ([14]; 16 h) [µg/mL] | also measured |
| --- | --- | --- | --- | --- | --- | --- | --- | --- | --- | --- | --- | --- | --- | --- | --- | --- | --- | --- | --- | --- | --- |
| C=C(O/N=C(\C(=O)N[C@@H]1C(=O)N2C(C(=O)O)=C(C[n+]3ccc(CS(=O)(=O)[O-])cc3)CS[C@H]12)c1csc(N)n1)C(=O)O [Example 7, 7β-[2-(2-aminothiazol-4-yl)-2-(1-carboxy-1-vinyloxyimino]acetamido]-3-(4-sulfonatomethyl-1-pyridinio)methyl-3-cephem-4-carboxylic acid (syn-isomer)] | 12.5 (≈ 20 µM) | 3.12 (≈ 4.99 µM) | 0.1 (≈ 0.16 µM) | 0.2 (≈ 0.32 µM) | 0.05 (≈ 0.08 µM) | 25 (≈ 40 µM) | 0.1 (≈ 0.16 µM) | 0.39 (≈ 0.624 µM) | 50 (≈ 80 µM) | 0.0125 (≈ 0.02 µM) | 1.56 (≈ 2.5 µM) | 0.39 (≈ 0.624 µM) | 0.025 (≈ 0.04 µM) | 25 (≈ 40 µM) | > 100 | 3.12 (≈ 4.99 µM) | 0.025 (≈ 0.04 µM) |  |  |  | MIC [5, 21]: 3.12 µg/mL (≈ 4.99 µM); MIC ([9]; HX19, 10^6 CFU/ml, Mueller Hinton agar, 37° C., 16 hours, read-out: MIC): 0.0125 µg/mL (≈ 0.02 µM); MIC [14, 21]: 0.0125 µg/mL (≈ 0.02 µM) |
| C=C(O/N=C(\C(=O)N[C@@H]1C(=O)N2C(C(=O)O)=C(C[n+]3ccc(CCS(=O)(=O)[O-])cc3)CS[C@H]12)c1csc(N)n1)C(=O)O [Example 8, 7β-[2-(2-aminothiazol-4-yl)-2-(1-carboxy-1-vinyloxyimino)acetamido]-3-[4-(2-sulfonatoethyl)-1-pyridinio]methyl-3-cephem-4-carboxylic acid (syn-isomer)] | 12.5 (≈ 19.6 µM) | 3.12 (≈ 4.89 µM) | 0.05 (≈ 0.0783 µM) | 0.05 (≈ 0.0783 µM) | 0.05 (≈ 0.0783 µM) | 6.25 (≈ 9.79 µM) | 0.2 (≈ 0.313 µM) | 0.2 (≈ 0.313 µM) | 12.5 (≈ 19.6 µM) |  |  |  | 0.025 (≈ 0.0391 µM) | 12.5 (≈ 19.6 µM) | > 100 | 3.12 (≈ 4.89 µM) | 0.05 (≈ 0.0783 µM) | 0.78 (≈ 1.22 µM) | 0.025 (≈ 0.0391 µM) | 0.05 (≈ 0.0783 µM) | MIC ([12]; IAM1184, 16 h): 0.025 µg/mL (≈ 0.0391 µM); MIC ([13]; GN5482, 10^6 CFU/ml, β-Lactamase-producing strain, 37° C., 16 hours, read-out: MIC): 0.39 µg/mL (≈ 0.611 µM); MIC [15, 21]: 0.39 µg/mL (≈ 0.611 µM) |
| C=C(O/N=C(\C(=O)N[C@@H]1C(=O)N2C(C(=O)[O-])=C(C[n+]3cccc(N)c3)CS[C@H]12)c1csc(N)n1)C(=O)O [Example 9, sodium 7β-[2-(2-aminothiazol-4-yl)-2-(1-carboxylato-1-vinyloxyimino)acetamido]-3-(3-amino-1-5 pyridinio)methyl 3-cephem-4-carboxylate (syn-isomer)] | 3.12 |  | 0.025 | 0.025 | 0.0125 | 3.12 | 0.05 | 0.1 | 3.12 | < 0.006 | 0.2 | 0.1 |  | 3.12 | > 100 |  | 0.39 | 0.78 | 0.0125 | 0.0125 | MIC ([2]; 16 h): 1.56 µg/mL; MIC ([16]; PC1602, 10^6 CFU/ml, Mueller Hinton agar, 37° C., 16 hours, read-out: MIC): < 0.006 µg/mL; MIC ([19]; IFO3445, 16 h): 0.78 µg/mL |
